Results reported in patent publication US9650395B2, “Antibacterial compounds and methods for use” (PTC Therapeutics, Inc., priority 2011, dated 2017).
Like-named read-outs stand apart in the source and are kept apart here.

What was measured:
[1] = tested on: super sensitive Gram-negative Escherichia coli (E. coli) BAS849; experiment: Antibacterial activity, microbroth dilution MIC, E. coli BAS849; format: cell-based; conditions: Escherichia coli, read-out: MIC, BAS849
[2] = tested on: control Gram-negative E. coli 25922 strain; experiment: Antibacterial activity, microbroth dilution MIC, E. coli 25922; format: cell-based, Escherichia coli; conditions: Escherichia coli; E. coli 25922, microbroth dilution; read-out: MIC, 25922
[3] = tested on: Gram-positive Staphylococcus aureus (S. aureus) 29213; experiment: Antibacterial activity, microbroth dilution MIC, S. aureus 29213; format: cell-based; conditions: Staphylococcus aureus; S. aureus 29213, microbroth dilution; read-out: MIC, 29213
[4] = tested on: quinolone resistant E. coli LZ3111; experiment: Antibacterial activity, MIC, quinolone resistant E. coli LZ3111; format: cell-based, Escherichia coli; conditions: Escherichia coli, read-out: MIC, LZ3111
Description: (§1) The antibacterial activity from a microbroth dilution method may be presented as the minimum inhibitory concentration (MIC in […]). The MIC value is the lowest concentration of a drug which prevents macroscopically visible bacterial growth under test conditions.
Mutations in these regions are known to confer a high level resistance to the quinolone class of antibiotics.

[5] = tested on: E. coli ELZ4000 (MDR clinical isolate); experiment: Antibacterial activity, MIC, MDR E. coli ELZ4000; format: cell-based, Escherichia coli; conditions: Escherichia coli; E. coli ELZ4000, MDR clinical isolate; read-out: MIC ELZ4000
[6] = tested on: E. coli ELZ4251 (MDR clinical isolate); experiment: Antibacterial activity, MIC, MDR E. coli ELZ4251; format: cell-based, Escherichia coli; conditions: Escherichia coli, E. coli ELZ4251, MDR clinical isolate; read-out: MIC ELZ4251
[7] = tested on: Acinetobacter baumannii (A. baumannii) BAA747; experiment: Antibacterial activity, MIC, A. baumannii BAA747; format: cell-based; conditions: Acinetobacter baumannii; A. baumannii BAA747; read-out: MIC BAA747
[8] = tested on: Klebsiella pneumoniae (K. pneumoniae) 35657; experiment: Antibacterial activity, MIC, K. pneumoniae 35657; format: cell-based; conditions: Klebsiella pneumoniae
[9] = tested on: resistant A. baumannii MXX2240 (MDR clinical isolate); experiment: Antibacterial activity, MIC, resistant A. baumannii MXX2240; format: cell-based, Acinetobacter baumannii; conditions: Acinetobacter baumannii, resistant A. baumannii MMX2240, MDR clinical isolate; read-out: MIC MMX2240
[10] = tested on: resistant K. pneumoniae MXX1232 (MDR clinical isolate); experiment: Antibacterial activity, MIC, resistant K. pneumoniae MXX1232; format: cell-based, Klebsiella pneumoniae; conditions: Klebsiella pneumoniae; resistant K. pneumoniae MMX1232, MDR clinical isolate; read-out: MIC MMX1232
[11] = tested on: Pseudomonas aeruginosa (P. aeruginosa) 27853; experiment: Antibacterial activity, MIC, P. aeruginosa 27853; format: cell-based; conditions: Pseudomonas aeruginosa, P. aeruginosa 27853; read-out: MIC 27853
Description: as §1
Antibacterial activity of test compounds against the Gram-negative bacterium Pseudomonas aeruginosa (P. aeruginosa) 27853 is shown in Table 5.

[12] = tested on: Haemophilus influenzae (H. influenzae) 49247; experiment: Antibacterial activity, MIC, H. influenzae 49247; format: cell-based; conditions: Haemophilus influenzae; H. influenzae 49247; read-out: MIC 49247
Procedure, shortened: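 Antibacterial activity against the Gram-negative organism Haemophilus influenzae strain 49247 was measured by microbroth dilution. The minimum inhibitory concentration (MIC) was taken as the lowest drug concentration that stopped bacterial growth from being visible to the naked eye under the test conditions.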

[13] = tested on: Moraxella catarrhalis (M. catarrhalis) 25238; experiment: Antibacterial activity, MIC, M. catarrhalis 25238; format: cell-based; conditions: Moraxella catarrhalis, M. catarrhalis 25238; read-out: MIC 25238
[14] = tested on: Neisseria meningitidis (N. meningitidis) 13090; experiment: Antibacterial activity, MIC, N. meningitidis 13090; format: cell-based; conditions: Neisseria meningitidis; N. meningitidis 13090; read-out: MIC 13090
[15] = E. coli BAS849, microbroth dilution

Row | SMILES | MIC [1, 15] | MIC [2] | MIC [3] | MIC [4] | MIC [5] | MIC [6] | MIC [7] | MIC [8] | MIC [9] | MIC [10] | MIC [11] | MIC [12] | MIC [13] | MIC [14] | MIC [1]
1 | CCc1c(-c2ccc(N3CC4CC4(N)C3)cc2)[nH]c(=O)c(C(=O)O)c1O.Cl (stereo not shown) [Cpd 277, 6-[4-(1-amino-3-azabicyclo[3.1.0]hex-3-yl)phenyl]-5-ethyl-4-hydroxy-2-oxo-1,2-dihydropyridine-3-carboxylic acid hydrochloride] | < 1 µg/mL | 1 to 3.5 µg/mL | 3.5 to 12.5 µg/mL | 3.5 to 12.5 µg/mL | 12.5 to 150 µg/mL | 12.5 to 150 µg/mL | 3.5 to 12.5 µg/mL | 1 to 3.5 µg/mL | 12.5 to 150 µg/mL | 12.5 to 150 µg/mL | 12.5 to 150 µg/mL | 1 to 3.5 µg/mL | 1 to 3.5 µg/mL | < 1 µg/mL | –
2 | CCc1c(-c2ccc(N3C[C@H]4CC[C@@H](NC)[C@H]4C3)cc2)[nH]c(=O)c(C(=O)O)c1O.Cl [Cpd 256, 5-ethyl-4-hydroxy-6-{4-[(3aR,4R,6aS)-4-(methylamino)hexahydrocyclopenta[c]pyrrol-2(1H)-yl]phenyl}-2-oxo-1,2-dihydropyridine-3-carboxylic acid hydrochloride] | < 1 µg/mL | 1 to 3.5 µg/mL | 3.5 to 12.5 µg/mL | 1 to 3.5 µg/mL | 12.5 to 150 µg/mL | 3.5 to 12.5 µg/mL | 12.5 to 150 µg/mL | 1 to 3.5 µg/mL | 12.5 to 150 µg/mL | 12.5 to 150 µg/mL | 12.5 to 150 µg/mL | 3.5 to 12.5 µg/mL | 1 to 3.5 µg/mL | < 1 µg/mL | –
3 | CCc1c(-c2ccc(N3CCC(C(C)(C)N)C3)cc2)[nH]c(=O)c(C(=O)O)c1O.Cl (stereo not shown) [Cpd 279, 6-{4-[3-(2-aminopropan-2-yl)pyrrolidin-1-yl]phenyl}-5-ethyl-4-hydroxy-2-oxo-1,2-dihydropyridine-3-carboxylic acid hydrochloride] | < 1 µg/mL | 1 to 3.5 µg/mL | 12.5 to 150 µg/mL | < 1 µg/mL | 3.5 to 12.5 µg/mL | 1 to 3.5 µg/mL | 12.5 to 150 µg/mL | 3.5 to 12.5 µg/mL | 3.5 to 12.5 µg/mL | 12.5 to 150 µg/mL | 12.5 to 150 µg/mL | 3.5 to 12.5 µg/mL | 3.5 to 12.5 µg/mL | 12.5 to 150 µg/mL | –
4 | CCc1c(-c2ccc(N3C[C@H]4CCC[C@H](N)[C@H]4C3)cc2)[nH]c(=O)c(C(=O)O)c1O.Cl [Cpd 258, 6-{4-[(3aR,4S,7aS)-4-aminooctahydro-2H-isoindol-2-yl]phenyl}-5-ethyl-4-hydroxy-2-oxo-1,2-dihydropyridine-3-carboxylic acid hydrochloride] | < 1 µg/mL | 1 to 3.5 µg/mL | 3.5 to 12.5 µg/mL | < 1 µg/mL | 12.5 to 150 µg/mL | 3.5 to 12.5 µg/mL | 12.5 to 150 µg/mL | 1 to 3.5 µg/mL | 3.5 to 12.5 µg/mL | 12.5 to 150 µg/mL | 12.5 to 150 µg/mL | 3.5 to 12.5 µg/mL | 1 to 3.5 µg/mL | < 1 µg/mL | –
5 | CCc1c(-c2ccc(N3C[C@H]4CCC[C@@H](NC)[C@H]4C3)cc2)[nH]c(=O)c(C(=O)O)c1O.Cl [Cpd 296, 5-ethyl-4-hydroxy-6-{4-[(3aR,4R,7aS)-4-(methylamino)octahydro-2H-isoindol-2-yl]phenyl}-2-oxo-1,2-dihydropyridine-3-carboxylic acid hydrochloride] | < 1 µg/mL | 1 to 3.5 µg/mL | 1 to 3.5 µg/mL | < 1 µg/mL | 12.5 to 150 µg/mL | 3.5 to 12.5 µg/mL | 12.5 to 150 µg/mL | 1 to 3.5 µg/mL | 3.5 to 12.5 µg/mL | 12.5 to 150 µg/mL | 12.5 to 150 µg/mL | 3.5 to 12.5 µg/mL | 3.5 to 12.5 µg/mL | < 1 µg/mL | –
6 | CCc1c(-c2ccc(N3C[C@H]4CC[C@H](N)[C@H]4C3)cc2)[nH]c(=O)c(C(=O)O)c1O.O=C(O)C(F)(F)F [Cpd 265, 6-{4-[(3aR,4S,6aS)-4-aminohexahydrocyclopenta[c]pyrrol-2(1H)-yl]phenyl}-5-ethyl-4-hydroxy-2-oxo-1,2-dihydropyridine-3-carboxylic acid trifluoroacetate] | – | 3.5 to 12.5 µg/mL | 12.5 to 150 µg/mL | 3.5 to 12.5 µg/mL | 12.5 to 150 µg/mL | 3.5 to 12.5 µg/mL | 12.5 to 150 µg/mL | 3.5 to 12.5 µg/mL | 12.5 to 150 µg/mL | 12.5 to 150 µg/mL | 12.5 to 150 µg/mL | 12.5 to 150 µg/mL | 3.5 to 12.5 µg/mL | 1 to 3.5 µg/mL | 1 to 3.5 µg/mL
7 | CCc1c(-c2ccc(N3C[C@H]4CCC[C@@H](N)[C@H]4C3)cc2)[nH]c(=O)c(C(=O)O)c1O.O=C(O)C(F)(F)F [Cpd 262, 6-{4-[(3aR,4R,7aS)-4-aminooctahydro-2H-isoindol-2-yl]phenyl}-5-ethyl-4-hydroxy-2-oxo-1,2-dihydropyridine-3-carboxylic acid trifluoroacetate] | – | 1 to 3.5 µg/mL | 3.5 to 12.5 µg/mL | < 1 µg/mL | 1 to 3.5 µg/mL | 1 to 3.5 µg/mL | 3.5 to 12.5 µg/mL | 1 to 3.5 µg/mL | 1 to 3.5 µg/mL | 12.5 to 150 µg/mL | 12.5 to 150 µg/mL | 3.5 to 12.5 µg/mL | 3.5 to 12.5 µg/mL | 1 to 3.5 µg/mL | < 1 µg/mL
8 | CCc1c(-c2ccc(N3CCC(N(C)C)C3)cc2)[nH]c(=O)c(C(=O)O)c1O.Cl (stereo not shown) [Cpd 275, 6-{4-[3-(dimethylamino)pyrrolidin-1-yl]phenyl}-5-ethyl-4-hydroxy-2-oxo-1,2-dihydropyridine-3-carboxylic acid hydrochloride] | < 1 µg/mL | < 1 µg/mL | 12.5 to 150 µg/mL | 1 to 3.5 µg/mL | 3.5 to 12.5 µg/mL | 1 to 3.5 µg/mL | 1 to 3.5 µg/mL | 1 to 3.5 µg/mL | 1 to 3.5 µg/mL | 12.5 to 150 µg/mL | 3.5 to 12.5 µg/mL | < 1 µg/mL | < 1 µg/mL | < 1 µg/mL | –
9 | CCc1c(-c2ccc(N3CCC(CNC)C3)cc2)[nH]c(=O)c(C(=O)O)c1O.Cl (stereo not shown) [Cpd 254, 5-ethyl-4-hydroxy-6-(4-{3-[(methylamino)methyl]pyrrolidin-1-yl}phenyl)-2-oxo-1,2-dihydropyridine-3-carboxylic acid hydrochloride] | < 1 µg/mL | 1 to 3.5 µg/mL | 12.5 to 150 µg/mL | 3.5 to 12.5 µg/mL | 12.5 to 150 µg/mL | 3.5 to 12.5 µg/mL | 3.5 to 12.5 µg/mL | 3.5 to 12.5 µg/mL | 12.5 to 150 µg/mL | 12.5 to 150 µg/mL | 3.5 to 12.5 µg/mL | 12.5 to 150 µg/mL | 12.5 to 150 µg/mL | 1 to 3.5 µg/mL | –
10 | CCc1c(-c2ccc(N3CC4CCCNC4C3)cc2)[nH]c(=O)c(C(=O)O)c1O.Cl (stereo not shown) [Cpd 272, 5-ethyl-4-hydroxy-6-[4-(octahydro-6H-pyrrolo[3,4-b]pyridin-6-yl)phenyl]-2-oxo-1,2-dihydropyridine-3-carboxylic acid hydrochloride] | < 1 µg/mL | < 1 µg/mL | 3.5 to 12.5 µg/mL | < 1 µg/mL | 3.5 to 12.5 µg/mL | 1 to 3.5 µg/mL | 1 to 3.5 µg/mL | < 1 µg/mL | 3.5 to 12.5 µg/mL | 12.5 to 150 µg/mL | 3.5 to 12.5 µg/mL | < 1 µg/mL | < 1 µg/mL | < 1 µg/mL | –
11 | CCc1c(-c2ccc(N3C[C@H]4CC[C@@H](N(C)C)[C@H]4C3)cc2)[nH]c(=O)c(C(=O)O)c1O.Cl [Cpd 263, 6-{4-[(3aR,4R,6aS)-4-(dimethylamino)hexahydrocyclopenta[c]pyrrol-2(1H)-yl]phenyl}-5-ethyl-4-hydroxy-2-oxo-1,2-dihydropyridine-3-carboxylic acid hydrochloride] | < 1 µg/mL | 1 to 3.5 µg/mL | 12.5 to 150 µg/mL | 3.5 to 12.5 µg/mL | 12.5 to 150 µg/mL | 12.5 to 150 µg/mL | 3.5 to 12.5 µg/mL | 3.5 to 12.5 µg/mL | 12.5 to 150 µg/mL | 12.5 to 150 µg/mL | 12.5 to 150 µg/mL | 3.5 to 12.5 µg/mL | 1 to 3.5 µg/mL | 1 to 3.5 µg/mL | –
